The NIST ThermoML archive (doi:10.1016/j.tca.2015.03.020)

Details: Rate of evaporation

CCn1cc[n+](C)c1.O=S(=O)([N-]S(=O)(=O)C(F)(F)F)C(F)(F)F
Liquid
Details | vapor or sublimation pressure [kPa]
363.13 K | 1.75e-09
368.13 K | 2.95e-09
373.13 K | 4.91e-09
378.13 K | 8.06e-09
383.13 K | 1.31e-08
388.13 K | 2.09e-08
393.13 K | 3.31e-08
398.13 K | 5.18e-08
403.13 K | 8.01e-08
408.13 K | 1.23e-07
413.13 K | 1.86e-07
418.13 K | 2.78e-07
423.13 K | 4.14e-07
428.13 K | 6.09e-07
433.13 K | 8.88e-07
438.13 K | 1.28e-06
443.13 K | 1.84e-06
448.13 K | 2.62e-06
453.13 K | 3.7e-06
458.13 K | 5.18e-06
463.13 K | 7.2e-06
468.13 K | 9.95e-06
473.13 K | 1.36e-05
538.13 K | 0.00129
543.13 K | 0.00168
548.13 K | 0.00216
553.13 K | 0.00277
558.13 K | 0.00355
563.13 K | 0.00451
568.13 K | 0.00572
573.13 K | 0.00722
578.13 K | 0.00907
583.13 K | 0.0114
588.13 K | 0.0142
593.13 K | 0.0176
598.13 K | 0.0218
603.13 K | 0.0269
608.13 K | 0.0331
613.13 K | 0.0405
618.13 K | 0.0495
623.13 K | 0.0602
628.13 K | 0.0731
633.13 K | 0.0885
638.13 K | 0.107
643.13 K | 0.128
648.13 K | 0.154
653.13 K | 0.184
658.13 K | 0.22
663.13 K | 0.261
668.13 K | 0.31
673.13 K | 0.367
678.13 K | 0.433
683.13 K | 0.51
688.13 K | 0.599
693.13 K | 0.703
698.13 K | 0.822
703.13 K | 0.959
708.13 K | 1.12
713.13 K | 1.3
718.13 K | 1.5
723.13 K | 1.74

CCn1cc[n+](C)c1.COS(=O)(=O)[O-] [1-ethyl-3-methylimidazolium methylsulfate]
Liquid
Details | vapor or sublimation pressure [kPa]
408.15 K | 6.75e-09
410.15 K | 8.27e-09
413.15 K | 1.12e-08
416.15 K | 1.5e-08
420.15 K | 2.21e-08
424.15 K | 3.24e-08
428.15 K | 4.7e-08
432.15 K | 6.79e-08
436.15 K | 9.72e-08
440.15 K | 1.38e-07
444.15 K | 1.96e-07
448.15 K | 2.75e-07

c1ccc2cc3ccccc3cc2c1 [anthracene]
Crystal
Details | vapor or sublimation pressure [kPa]
284.15 K | 1.79e-07
289.15 K | 3.52e-07
294.15 K | 6.77e-07
299.15 K | 1.27e-06
304.15 K | 2.35e-06
309.15 K | 4.25e-06
314.15 K | 7.54e-06
319.15 K | 1.31e-05
324.15 K | 2.25e-05
329.15 K | 3.79e-05
334.15 K | 6.29e-05
339.15 K | 0.000103
344.15 K | 0.000166
349.15 K | 0.000263
354.15 K | 0.000413
359.15 K | 0.00064
364.15 K | 0.000979
369.15 K | 0.00148
374.15 K | 0.00222
379.15 K | 0.00328
384.15 K | 0.00481
389.15 K | 0.00698
394.15 K | 0.01
399.15 K | 0.0143
404.15 K | 0.0202
409.15 K | 0.0283
414.15 K | 0.0393
419.15 K | 0.0541
424.15 K | 0.0741
429.15 K | 0.101
434.15 K | 0.136
439.15 K | 0.182
444.15 K | 0.242
449.15 K | 0.319
454.15 K | 0.42
459.15 K | 0.548
464.15 K | 0.712
469.15 K | 0.919
474.15 K | 1.18
479.15 K | 1.51
484.15 K | 1.92
489.15 K | 2.42
494.15 K | 3.05
499.15 K | 3.83
504.15 K | 4.77
509.15 K | 5.93

CCCCCCCCCCCC [dodecane]
Liquid
Details | vapor or sublimation pressure [kPa]
284.15 K | 0.00421
289.15 K | 0.00646
294.15 K | 0.00978
299.15 K | 0.0146
304.15 K | 0.0215
309.15 K | 0.0312
314.15 K | 0.0449
319.15 K | 0.0638
324.15 K | 0.0897
329.15 K | 0.125
334.15 K | 0.172
339.15 K | 0.234
344.15 K | 0.317
349.15 K | 0.425
354.15 K | 0.565
359.15 K | 0.746
364.15 K | 0.976
369.15 K | 1.27
374.15 K | 1.64
379.15 K | 2.1
384.15 K | 2.67
389.15 K | 3.38
394.15 K | 4.25
399.15 K | 5.32
404.15 K | 6.62
409.15 K | 8.19
414.15 K | 10.1
419.15 K | 12.4
424.15 K | 15.1
429.15 K | 18.3
434.15 K | 22.1
439.15 K | 26.6
444.15 K | 31.8
449.15 K | 38
454.15 K | 45.1
459.15 K | 53.4
464.15 K | 63
469.15 K | 74.1
474.15 K | 86.8
479.15 K | 101
484.15 K | 118
489.15 K | 137
494.15 K | 158
499.15 K | 183
504.15 K | 210
509.15 K | 241

CCCCCCCCCCCCCCCC [hexadecane]
Liquid
Details | vapor or sublimation pressure [kPa]
284.15 K | 6.01e-05
289.15 K | 0.000102
294.15 K | 0.000168
299.15 K | 0.000274
304.15 K | 0.00044
309.15 K | 0.000696
314.15 K | 0.00108
319.15 K | 0.00166
324.15 K | 0.00252
329.15 K | 0.00377
334.15 K | 0.00558
339.15 K | 0.00816
344.15 K | 0.0118
349.15 K | 0.0169
354.15 K | 0.0239
359.15 K | 0.0335
364.15 K | 0.0465
369.15 K | 0.0641
374.15 K | 0.0875
379.15 K | 0.119
384.15 K | 0.159
389.15 K | 0.212
394.15 K | 0.281
399.15 K | 0.369
404.15 K | 0.482
409.15 K | 0.626
414.15 K | 0.806
419.15 K | 1.03
424.15 K | 1.32
429.15 K | 1.67
434.15 K | 2.1
439.15 K | 2.63
444.15 K | 3.28
449.15 K | 4.07
454.15 K | 5.02
459.15 K | 6.18
464.15 K | 7.56
469.15 K | 9.21
474.15 K | 11.2
479.15 K | 13.5
484.15 K | 16.3
489.15 K | 19.5
494.15 K | 23.3
499.15 K | 27.7
504.15 K | 32.9
509.15 K | 38.9
